{"source": "ChEMBL document CHEMBL5729103", "about": "“Thienopyrazine carboxamides as ubiquitin-specific protease inhibitors” (2022)", "target": "T1, Ubiquitin carboxyl-terminal hydrolase 28 (Homo sapiens, UniProt Q96RU2)", "T1 sequence (Q96RU2 whole entry)": "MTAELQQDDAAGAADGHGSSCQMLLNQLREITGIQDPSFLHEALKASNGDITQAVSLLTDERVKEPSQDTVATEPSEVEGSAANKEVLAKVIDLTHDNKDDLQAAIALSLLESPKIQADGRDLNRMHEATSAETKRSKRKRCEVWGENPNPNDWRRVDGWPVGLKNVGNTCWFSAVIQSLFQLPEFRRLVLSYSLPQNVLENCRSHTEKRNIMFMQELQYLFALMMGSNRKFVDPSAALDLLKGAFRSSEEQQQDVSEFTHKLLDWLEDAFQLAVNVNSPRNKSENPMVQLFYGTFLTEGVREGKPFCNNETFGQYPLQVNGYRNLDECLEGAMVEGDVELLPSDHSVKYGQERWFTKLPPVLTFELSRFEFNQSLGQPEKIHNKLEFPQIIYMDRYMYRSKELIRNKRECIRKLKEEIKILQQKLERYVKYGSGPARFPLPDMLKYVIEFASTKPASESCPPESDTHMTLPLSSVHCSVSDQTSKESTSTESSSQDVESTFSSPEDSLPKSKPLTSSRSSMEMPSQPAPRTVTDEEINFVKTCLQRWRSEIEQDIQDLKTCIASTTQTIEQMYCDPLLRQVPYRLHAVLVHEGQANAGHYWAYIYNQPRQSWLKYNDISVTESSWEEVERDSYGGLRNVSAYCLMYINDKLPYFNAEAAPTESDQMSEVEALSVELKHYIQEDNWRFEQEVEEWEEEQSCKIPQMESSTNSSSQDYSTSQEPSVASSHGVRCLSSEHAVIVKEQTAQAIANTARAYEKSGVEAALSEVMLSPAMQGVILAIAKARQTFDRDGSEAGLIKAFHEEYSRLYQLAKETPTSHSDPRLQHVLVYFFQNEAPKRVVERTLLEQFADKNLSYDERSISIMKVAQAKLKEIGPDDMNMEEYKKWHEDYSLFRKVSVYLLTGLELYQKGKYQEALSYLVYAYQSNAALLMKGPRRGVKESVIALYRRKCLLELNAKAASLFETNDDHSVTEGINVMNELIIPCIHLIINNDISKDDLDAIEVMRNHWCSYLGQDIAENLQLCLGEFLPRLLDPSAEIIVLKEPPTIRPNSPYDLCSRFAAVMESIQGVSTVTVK", "assay": "Biochemical Assay: Ubiquitin-Rhodamine 110 Assay for USP28 Activity: Each assay was performed in a final volume of 20 μL in assay buffer containing 20 mM Tris-HCl (pH 8.0, (1M Tris-HCl, pH 8.0 solution; Corning 46-031-CM)), 2 mM CaCl2 (1M Calcium Chloride solution; Sigma #21114) 2 mM BME (2-Mercaptoethanol; Sigma 63689-25ML-F), 0.01% Prionex (0.22 μM filtered, Sigma #G-0411), and 0.01% Triton X-100. Stock compound solutions were stored at −20° C. as 10 mM in DMSO. Up to 1 month prior to the assay, 2 mM test compounds were pre-dispensed into assay plates (Black, low volume; Corning #3820) and frozen at −20° C. Prestamped assay plates were allowed to come to room temperature on the day of the assay. For the screen, 100 nL of 2 mM was pre-dispensed for a final screening concentration of 10 μM (DMSO(fc)=0.5%). […]", "note": "pIC50: −log10 of the molar value."}
{"smiles": "Cc1cnc2c(N)c(C(=O)NCCc3ccc(N4CC5CCC(C4)N5)cc3)sc2n1", "values": [{"measurement": "pIC50", "result": "> 6.70"}]}
